Experimental data reported in patent US10245847B2, “Reaction solution and ink jet recording method” (Seiko Epson Corporation, priority 2016, dated 2019).

Experiments:
[1] = physchem
Description: Here, regarding several organic solvents, a log P value (water octanol distribution coefficient) will be described below. […] Note that, numbers in parentheses indicate log P values.
Here, “log P value” means an index indicating the hydrophobicity of the compound. The log P value indicates the ratio of the solutes distributed in these two layers in the octanol/water system. In other words, the larger the log P value of the solute is, the higher the hydrophobicity is, and it dissolves well in the octanol phase. Further, the fact that the log P values of the two kinds of substances are approximate means that the hydrophobicity of each is similar. The log P value can be obtained by, for example, a flask shaking method in which a solute and two kinds of solvents are actually put into a flask and are stirred well, and an HPLC method using high performance liquid chromatography (HPLC).

[2] = degree of solubility with respect to an aqueous solution having a concentration of 2-pyrrolidone of 20% by mass; conditions: 20% by mass 2-pyrrolidone aqueous solution, 25° C.
[3] = LogP, Table 2, organic solvents of the reaction solution
[4] = LogP, Table 3, organic solvents of the reaction solution

| Compound | logP [1] | Solubility to 2-pyrrolidone aqueous solution ([2]; Table 2) | Solubility to 2-pyrrolidone aqueous solution ([2]; Table 3) | further results |
| --- | --- | --- | --- | --- |
| CCOCCOCCOC [diethylene glycol ethyl methyl ether] | 0.69 | ≥1% | ≥1% |  |
| CCCCOCC(C)O (stereo not drawn) [propylene glycol monobutyl ether] | 1.19 | ≥1% | ≥1% |  |
| CCCCOCCOCCOCCO [triethylene glycol monobutyl ether] | 0.51 |  |  |  |
| OCC(O)CO [Glycerin] |  |  |  | LogP [1]: −1.76 |
| CC(=O)OCCOC(C)=O [Ethylene glycol diacetate] | 0.4 |  |  | LogP [1]: 0.40 |
| CCCCCCOCCO [ethylene glycol mono-n-hexyl ether] | 1.57 | ≥1% | ≥1% |  |
| CCC(=O)N(C)C [N,N-dimethyl propionamide] | 0.46 |  | ≥1% |  |
| COCCOCCOCCOC [triethylene glycol dimethyl ether] | -0.67 |  |  |  |
| O=C1CCCO1 [γ-butyrolactone] |  | ≥1% | ≥1% | logP [1, 3]: -0.64; logP [1, 4]: -0.64; logP ([1]; log P value (water octanol distribution coefficient), octanol/water): -0.64 |
| COCCC(=O)N(C)C [3-methoxy-N,N-dimethyl propanamide] |  |  |  | LogP [1]: 0.73 |
| COC(C)(C)CCO [3-methoxy-3-methylbutanol] | -0.63 |  |  |  |
| CCCCOCCOCCOCCCC [diethylene glycol di-n-butyl ether] | 1.92 |  |  | LogP [1]: 1.92 |
| CCCCOCCOCCO [diethylene glycol monobutyl ether] | 1.19 |  |  |  |
| CC(=O)OCC(C)OC(C)=O (stereo not drawn) [propylene glycol diacetate] | 0.74 |  |  |  |
| COC(C)CCO (stereo not drawn) [3-methoxy-1-butanol] | 0.07 | ≥1% | ≥1% |  |
| COCCOCCO [diethylene glycol monomethyl ether] |  | ≥1% | ≥1% | logP [1, 3]: -1.18; logP [1, 4]: -1.18 |
| CC(O)CO (stereo not drawn) [propylene glycol] | -1.4 |  |  |  |
| CCCCOCCOC(C)=O [ethylene glycol monobutyl ether acetate] |  | ≥1% | ≥1% | logP ([1]; octanol/water): 1.79 |
| CCCOCC(C)O (stereo not drawn) [propylene glycol monopropyl ether] | -0.81 |  |  |  |
| polyethylene glycol monomethyl ether |  | ≥1% | ≥1% | LogP [1]: 0.80 |
| CCC(O)CO (stereo not drawn) [1,2-butanediol] |  |  |  | logP ([1]; octanol/water): 0.06; Solubility to 2-pyrrolidone aqueous solution ([2]; Table 1): ≥1% |
| CCC(=O)OCC(C)OC(=O)CC (stereo not drawn) [propylene glycol dipropionate] | 1.76 |  |  |  |
